Measurements reported in publication PMC10889512, “Pyrimidine Schiff Bases: Synthesis, Structural Characterization and Recent Studies on Biological Activities” (International Journal of Molecular Sciences, 2024).
Values after ≈ are worked out from the molar mass of the structure shown. Read-outs that look alike come from different tables or passages of the source.

What was measured:
E. faecalis 29212 = assay: Antimicrobial activity assay, microdilution; assay type: cell-based, Enterococcus faecalis; details: concentration range from 0.5 µg/mL to 256 µg/mL
Procedure: (§1) In vitro antimicrobial and antifungal activity was screened using microdilution and modified Richard’s medium. The assay was performed for compounds 4a, 4b, 4c, and 4d with seven reference microbial strains from ATTC (E. coli 25922, S. aureus 43300, K. pneumoniae 700603, A. baumannii 19606, P. aeruginosa 27853, E. faecalis 29212, and C. albicans 10231).
(§2) Seven reference strains from the ATCC collection (Escherichia coli 25922, Staphylococcus aureus 43300, Klebsiella pneumoniae 13883, Acinetobacter baumannii 19606, Pseudomonas aeruginosa 27853, Enterococcus faecalis 29212, and Candida albicans 10231) were used. The assay was performed according to a modified version of Richard et al.’s protocol and ISO standards 20776-1:2019 and 16256:2021 [78, 79]. Microdilution with spectrophotometric measurement was used to calculate MIC50 (minimal inhibitory concentration which decreased the microorganisms’ viability to 50%) values. Briefly, compounds were prepared 100× concentrated in DMSO, and during the whole experiment, they were diluted to 1× with TSB. Serial dilutions of tested compounds were made directly on plates at a concentration range of 0.5 to 256 µg/mL. Microorganisms were incubated for 24 h at 37 °C (bacteria) or 25 °C (yeast) on Petri dishes with TSA. The bacteria/yeast suspensions were prepared at a density 5 × 10^5 CFU/mL (for bacteria) or 0.5–2.5 × 10^5 CFU/mL (for yeast) with TSB. Also, appropriate controls were contained in the experiment: the positive control consisted of a specific strain in TSB, and the negative control was TSB alone. To ensure that used strains were not modified and were still responding to antibacterial/antifungal compounds established by EUCAST, additional tests were conducted with levofloxacin, gentamicin, and amphotericin B. Microplates were incubated on a shaker for 24 h at 37 ± 1 °C or 25 ± 1 °C for the bacteria and yeast strains, respectively. After the incubation, spectrophotometric measurement was performed at 580 nm. MIC50 was calculated by comparing the results obtained for experimental sets with positive controls. Next, 50 µL aliquots of 1% (m/v) TTC solution were added to each well. The plates were incubated on the shaker for 24 h at 37/25 °C. In living microbial cells, colourless TTC is converted into red formazan crystals, which allows for visual observation and MBC/MFC (minimal bactericidal/fungicidal concentration) value assessment.

RPTEC cell line = assay: Neutral red uptake assay on RPTEC cell line; assay type: cell-based; details: 100 µM, 72 h
Procedure: In order to evaluate the cytotoxic properties of the tested compounds (4a–d), a neutral red uptake (NR) assay was performed on the RPTEC cell line. Four concentrations were used: 10, 100, 250, and 500 µM of each compound. The compound 4a was rejected from further investigation on cancer cell lines due to its high cytotoxicity (53 and 67% at 100 and 250 µM, respectively). Furthermore, at a concentration of 500 µM, the compound 4a crystallized, which influenced the obtained results by attenuating cytotoxic activity. Cell lines were plated in 96-well plates at a density of 1 × 10^4 cells/well. After 24 h incubation, which allowed the cells to attach and start to proliferate, the culture media were replaced with 4a–d dissolved in the appropriate medium at concentrations of 1, 10, 50, 100, 150 and 200 µM. […] Negative (1% DMSO in medium) and positive (1 µM staurosporine) controls were also included. Plates were incubated at 37 °C for 24, 48, and 72 h before the neutral red uptake assay. […] A 100 µL quantity of destain solution consisting of 50% ethanol, 1% glacial acetic acid, and deionized water was added to each well. […] Absorption was measured at 540 nm excitation. The cells’ viability was calculated by comparing results from experimental sets with negative controls according to the formula: % viability=ODtest substance−ODblind/ODnegative control−ODblind×100

E. coli 25922 = assay: Antimicrobial activity assay, microdilution; assay type: cell-based, Escherichia coli; details: concentration range from 0.5 µg/mL to 256 µg/mL
Procedure: as §1, §2

S. aureus 43300 = assay: Antimicrobial activity assay, microdilution; assay type: cell-based, Staphylococcus aureus; details: concentration range from 0.5 µg/mL to 256 µg/mL
Procedure: as §1, §2

P. aeruginosa 27853 = assay: Antimicrobial activity assay, microdilution; assay type: cell-based, Pseudomonas aeruginosa; details: concentration range from 0.5 µg/mL to 256 µg/mL
Procedure: as §1, §2

C. albicans 10231 = assay: Antifungal activity assay, microdilution; assay type: cell-based, Candida albicans; details: concentration range from 0.5 µg/mL to 256 µg/mL
Procedure: as §1, §2

A. baumannii 19606 = assay: Antimicrobial activity assay, microdilution; assay type: cell-based, Acinetobacter baumannii; details: concentration range from 0.5 µg/mL to 256 µg/mL
Procedure: as §1, §2

K. pneumoniae 700603 = assay: Antimicrobial activity assay, microdilution; assay type: cell-based, Klebsiella pneumoniae; details: concentration range from 0.5 µg/mL to 256 µg/mL
Procedure: as §1, §2

HepG2 = assay: Neutral red uptake assay on HepG2; assay type: cell-based; details: Homo sapiens; HepG2, 72 h treatment
Procedure: (§3) Based on the results obtained for the RPTEC cell line, the following concentrations of 4b–d were chosen to be applied to neoplastic cell lines: 0.1, 1, 10, 25, 50, and 100 µM. A172, AGS, CaCo-2, HeLa, and HepG2 cancer cell lines were used to perform a neutral red uptake assay. The obtained results were compared with a negative control (cell lines incubated without tested compounds), and half-maximal inhibitory concentration (IC50) values were calculated. Cell lines were plated in 96-well plates at a density of 1 × 10^4 cells/well. After 24 h incubation, which allowed the cells to attach and start to proliferate, the culture media were replaced with 4a–d dissolved in the appropriate medium at concentrations of 1, 10, 50, 100, 150 and 200 µM. […] Negative (1% DMSO in medium) and positive (1 µM staurosporine) controls were also included. Plates were incubated at 37 °C for 24, 48, and 72 h before the neutral red uptake assay. The neutral red uptake assay was performed as described by Repetto et al.. Briefly, the medium from all wells was discarded, the attached cells were washed with 100 µL PBS, and then 100 µL of neutral red working solution in medium (40 µg/mL) was added to each well. The neutral red solution was incubated overnight in the same conditions as the cells and centrifuged before being added to the cells. The plates were incubated for at least 2 h at 37 °C, 5% CO2, in a humidified atmosphere. Next, the neutral red medium was removed, and the cells were washed with 100 µL PBS. A 100 µL quantity of destain solution consisting of 50% ethanol, 1% glacial acetic acid, and deionized water was added to each well. Plates were incubated for 30 min with constant shaking on a horizontal shaker at 37 °C. Absorption was measured at 540 nm excitation. The cells’ viability was calculated by comparing results from experimental sets with negative controls according to the formula: % viability=ODtest substance−ODblind/ODnegative control−ODblind×100

CaCo-2 = assay: Neutral red uptake assay on CaCo-2; assay type: cell-based; details: Homo sapiens; CaCo-2, 72 h treatment
Procedure: as §3

HeLa = assay: Neutral red uptake assay on HeLa; assay type: cell-based; details: Homo sapiens, 72 h treatment
Procedure: as §3

AGS = assay: Neutral red uptake assay on AGS; assay type: cell-based, human; details: 72 h treatment
Procedure: as §3

A172 [1] = assay: Neutral red uptake assay on A172; assay type: cell-based, human; details: Homo sapiens, A 172, 72 h, A172, 72 h treatment
Procedure: as §3

AGS cell line = tested on: AGS cell line; set-up: method as in Suttie et al. 87; details: ref Suttie et al. 87; cited from earlier work
Enterococcus faecalis = tested on: Enterococcus faecalis; set-up: method as in PMID 33921108; details: cited from earlier work
A172 [2] = tested on: A172; set-up: method as in PMID 33921108; details: cited from earlier work
A172 cell line = tested on: A172 cell line; set-up: method as in PMID 30405885; details: A172, 72 h, 200 µM; cited from earlier work

Row | Compound | MIC and MBC/MFC activity (E. faecalis 29212) | melting point [°C] | MIC and MBC/MFC activity (E. coli 25922) | MIC and MBC/MFC activity (S. aureus 43300) | MIC and MBC/MFC activity (P. aeruginosa 27853) | MIC and MBC/MFC activity (C. albicans 10231) | MIC and MBC/MFC activity (A. baumannii 19606) | MIC and MBC/MFC activity (K. pneumoniae 700603) | also measured
1 | Cc1nc(-c2ccccc2)nc(Nc2ccc(F)cc2)c1C=Nc1ccc(F)cc1 [compound 4a, N-(4-fluorophenyl)-5-{[(4-fluorophenyl)imino]methyl}-6-methyl-2-phenylpyrimidin-4-amine] | Neither MIC nor MBC/MFC activity was observed | 178 | Neither MIC nor MBC/MFC activity was observed | Neither MIC nor MBC/MFC activity was observed | Neither MIC nor MBC/MFC activity was observed | Neither MIC nor MBC/MFC activity was observed | Neither MIC nor MBC/MFC activity was observed | Neither MIC nor MBC/MFC activity was observed | cytotoxicity (RPTEC cell line): 53%
2 | Cc1nc(-c2ccccc2)nc(Nc2ccc(F)cc2)c1C=Nc1ccc(Cl)c(C(F)(F)F)c1 [compound 4d, 5-[{[4-chloro-3-(trifluoromethyl)phenyl]imino}methyl]-N-(4-fluorophenyl)-6-methyl-2-phenylpyrimidin-4-amine] | Neither MIC nor MBC/MFC activity was observed | 210 | Neither MIC nor MBC/MFC activity was observed | Neither MIC nor MBC/MFC activity was observed | Neither MIC nor MBC/MFC activity was observed | Neither MIC nor MBC/MFC activity was observed | Neither MIC nor MBC/MFC activity was observed | Neither MIC nor MBC/MFC activity was observed | IC50 (HepG2): > 100 µM; IC50 (CaCo-2): > 100 µM; IC50 (HeLa): > 100 µM; IC50 (AGS): > 100 µM; IC50 (AGS; Homo sapiens, 72 h): 190 µM; IC50 (A172 [1]): > 100 µM
3 | O=c1[nH]cc(F)c(=O)[nH]1 [5-fluorouracil] |  |  |  |  |  |  |  |  | LD50 (AGS cell line): 153.7 µM
4 | COc1cccc2c1C(=O)c1c(O)c3c(c(O)c1C2=O)C[C@@](O)(C(=O)CO)C[C@@H]3O[C@H]1C[C@H](N)[C@@H](O)[C@H](C)O1 [epirubicin] |  |  |  |  |  |  |  |  | LD50 (AGS cell line): 0.23 µM
5 | COc1ccccc1N=Cc1c(C)nc(-c2ccccc2)nc1Nc1ccc(F)cc1 [compound 4c, N-(4-fluorophenyl)-6-methyl-2-phenyl-5-{[(2-methoxyphenyl)imino]methyl}pyrimidin-4-amine] | Neither MIC nor MBC/MFC activity was observed | 167 to 169 | Neither MIC nor MBC/MFC activity was observed | Neither MIC nor MBC/MFC activity was observed | Neither MIC nor MBC/MFC activity was observed | Neither MIC nor MBC/MFC activity was observed | Neither MIC nor MBC/MFC activity was observed | Neither MIC nor MBC/MFC activity was observed | IC50 (HepG2): > 100 µM; IC50 (CaCo-2): > 100 µM; IC50 (HeLa): > 100 µM; IC50 (AGS; Homo sapiens, 72 h): > 100 µM; IC50 (A172 [1]): > 100 µM
6 | CCOc1ccc(N=Cc2c(C)nc(-c3ccccc3)nc2Nc2ccc(F)cc2)cc1 [compound III, 5-[(4-ethoxyphenyl)imino]methyl-N-(4-fluorophenyl)-6-methyl-2-phenylpyrimidin-4-amine] |  |  |  |  |  |  |  |  | MBC (Enterococcus faecalis): 32 µg/mL (≈ 75 µM); MIC (Enterococcus faecalis): 16 µg/mL (≈ 37.5 µM); IC50 (A172 [2]): 526 µM
7 | Cn1nnc2c(C(N)=O)ncn2c1=O [TMZ, temozolomide] |  |  |  |  |  |  |  |  | cell viability (A172 cell line): below 70%
